According to US20140255321A1, “Active Sunscreen Composition” (Rhode Island Hospital, priority 2008, published 2014):

Test system: Normal Human Dermal Fibroblast cells
Assay: CometAssay of DNA damage in dermal fibroblasts exposed to a solar simulator under a protective layer
Type: cell-based
Settings: for Comet tail appearance / extent of DNA damage (in words): SYBR I Green visualisation after electrophoresis 25 minutes at 20 volts, FIGS. 2 and 3; for Comet tail appearance / extent of DNA damage (in words) / Integral of Student's Probability Density for Tail Length/Total Length: disodium salt
Text: Using a model for human skin (confluent human dermal fibroblasts, Lonza CC-2511), a fluorescent dye was used to evaluate induction of […]. Stilbene-420 was selected for having a broad range of absorption in the UVB and UVA ranges while retaining a relatively narrow emission spectrum centered around 420 nm. A 2% solution of stilbene in water was used for this study.
Stilbene-420 was compared to both unshielded cells and commercial SPF 45 sunblock in their ability to protect Normal Human Dermal Fibroblast cells raised on Lonza FGM-2 media from exposure to the full power of a solar simulator. A CometAssay was used to assess DNA damage to the cells. The resulting data was filtered and analyzed with an Integral of Student's Probability Density.
Using Fibroblast Grown Medium with 10% FBS, normal Human Dermal Fibroblasts (obtained from Lonza Clonetics) were grown to confluence in a 12-well plate. After 6 days, one of the wells was harvested by scraping and stored at 4° C. Using custom aluminum holders, a UV-transparent quartz window was placed above each well, and space between the window and holder sealed with 5% agarose. The windows were then covered with 0.5 mL of 0.5% Stilbene 420 florescent dye in water, commercial SPF 45 sunblock or left alone. Then, the plate was exposed to a Solar Simulator for 22.5 minutes at full intensity. Afterwards, the cells were harvested by scraping and all the cells were suspended in low-melting point for the CometAssay using a kit produced by Trevigen. Though the results of DNA damage are often easy to see, for example, cell death, quantifying the extent to which this damage has occurred can be difficult. The CometAssay is a test measures fairly low levels of DNA Damage. The basic concept of the test is that, given more incipient DNA damage that is dealt, the more fragments of DNA are created and the smaller they become. By embedding the cells in a low melting point agarose gel and lysing them, release of these DNA fragments occurs without inducing further damage. A simple gel electrophoresis process causes the fragments to begin to migrate out of the lysed cells. As smaller fragments move faster, a comet-like tail develops, which can be visualized by using a dye like SYBR1 Green. The relative size, intensity and length of this tail are directly related to the amount of DNA damage a cell has received.
After lysing the cells and running them on an electrophoresis apparatus for 25 minutes at 20 volts, the DNA fragment “tails” were visualized with SYBR I Green dye under a microscope using a 492 nm laser and stored (FIGS. 2a.-c.). Using a MatLAB script, the images were filtered by their intensity to isolate individual cells (FIG. 3). […] This is indicative of damaged DNA which forms a heterogeneous population of DNA strand lengths.
Each cell was measured by the width of the “core,” where the larger, less-damaged pieces of DNA remained, and the length of the “tail” produced from the migration of the smaller fragments. These values were compared in several ratios and a Student t-test was performed (Table 1). From those t-values an Integral of Student's Probability Density was calculated assuming an unequal variance between the different protections. This latter value determines the probability that the data comes from the same population as the control data. For the sunblock-protected cells, there is just an 11% chance when comparing the ratio of tail length to total length of the “comet” to the same ratio for the control. For the unprotected cells, the probability drops to just 4.7%. But, for the dye-protected cells, there was a 96.6% came from the same population, indicating the dye provided the best protection, keeping the cells closest to their original state.

[1] = Student t-test vs unexposed control cells, Solar Simulator 22.5 minutes at full intensity
[2] = probability that data come from the same population as the control, unequal variance assumed

## O=S(=O)([O-])c1ccccc1C=Cc1ccc(-c2ccc(C=Cc3ccccc3S(=O)(=O)[O-])cc2)cc1.[Na+].[Na+] [Stilbene 420, 2,2″-([1,1′-biphenyl]-4.4′-dyldi-2,1-ethenediyl)bis-benzenesulfonic acid disodium salt]
  Comet tail appearance / extent of DNA damage (in words): narrower, shorter tail
Listed as stillbene
  Comet tail appearance / extent of DNA damage (in words): do not form tails
[1]
  Tail Length/Core Width T-Value: 0.2257
  Tail Length/Total Length T-Value: 0.0437
Student t-test vs unexposed control cells, comet tail/core measures, Solar Simulator 22.5 minutes at full intensity
  Difference T-value: 0.1870
[2]
  Integral of Student's Probability Density for Difference: 85.83%
  Integral of Student's Probability Density for Tail Length/Core Width: 82.7%
  Integral of Student's Probability Density for Tail Length/Total Length: 96.63%
Probability that data come from the same population as the control, unequal variance assumed, listed as dye
  Integral of Student's Probability Density for Tail Length/Total Length: 96.6%
Statistical comparison of Stilbene-protected vs sunblock-protected cells
  Greater chance of being from the same population of unexposed cells than the sunblock protected cells: more than a forty percent greater chance
